Values after ≈ are worked out from the molar mass of the structure shown. Values joined by “and” are separate entries in the source; they are usually repeats but may differ in a detail not shown here. Equal values may be shown once. Read-outs that look alike come from different tables or passages of the source.
Tests used:
[1] = test system: penicillin susceptible and resistant pneumococcal strains (2 quinolone resistant); assay: Time-kill testing of 12 pneumococcal strains; format: cell-based, Streptococcus pneumoniae; details: for concentration at which bactericidal after 24 h: 12 penicillin susceptible and resistant pneumococcal strains, bactericidal = ≧3 log10 cfu/ml (99.9%) reduction
Description: For time-kill studies, glass tubes containing 5 ml cation-adjusted Mueller-Hinton broth (Difco)+5% lysed horse blood with doubling antibiotic concentrations were inoculated with 5×10^5 to 5×10^6 cfu/ml and incubated at 35° C. in a shaking water bath. […] Growth controls with inoculum but no antibiotic were included with each experiment (Pankuch, et al., Antimicrob. Agents Chemother. 38:2065-2072, 1994; Pankuch, et al., Antimicrob. Agents Chemother. 40:1653-1656, 1996).
Lysed horse blood was prepared as described previously. The bacterial inoculum was prepared by diluting a 16 h broth (medium as above) culture in the same medium. Dilutions required to obtain the correct inoculum (5×10^5-5×10^6 cfu/ml) were determined by prior viability studies using each strain (Pankuch, et al., Antimicrob. Agents Chemother. 38:2065-2072, 1994; Pankuch, et al., Antimicrob. Agents Chemother. 40: 1653-1656, 1996).
To inoculate each tube of serially diluted antibiotic, 50 μl of diluted inoculum was delivered by pipette beneath the surface of the broth. Tubes were then vortexed and plated for viability counts within 10 min (approximately 0.2 h). The original inoculum was determined by using the untreated growth control. Only tubes containing an initial inoculum within the range of 5×10^5 to 5×10^6 cfu/ml were acceptable (Pankuch, et al., Antimicrob. Agents Chemother. 38:2065-2072, 1994; Pankuch, et al., Antimicrob. Agents Chemother. 40:1653-1656, 1996).
Viability counts of antibiotic-containing suspensions were performed by plating ten-fold dilutions of 0.1 ml aliquots from each tube in sterile Mueller-t-Hinton broth onto trypticase soy agar 5% sheep blood agar plates (BBL). Recovery plates were incubated for up to 72 h. Colony Counts were performed on plates yielding 30-300 colonies. The lower limit of sensitivity of colony counts was 300 cfu/ml (Pankuch, et al., Antimicrob. Agents Chemother. 38:2065-2072, 1994; Pankuch, et al., Antimicrob. Agents Chemother. 40:1653-1656, 1996).
Time-kill assays were analysed by determining the number of strains which yielded a log10 cfu/ml of −1, −2 and −3 at 0, 3, 6, 12 and 24 h, compared to counts at time 0 h. Antimicrobials were considered bactericidal at the lowest concentration that reduced the original inoculum by ≧3 log10 cfu/ml (99.9%) at each of the time periods, and bacteriostatic if the inoculum was reduced by 0-3 log10 cfu/ml. […] The problem of bacterial carryover was addressed as described previously. For macrolide time-kill testing, only strains with MICs≦4.0 μg/ml were tested (Pankuch, et al., Antimicrob. Agents Chemother. 38:2065-9072, 1994; Pankuch, et al., Antimicrob. Agents Chemother. 40:1653-1656, 1996).

[2] = test system: quinolone-resistant Haemophilus influenzae strains; assay: Microdilution MIC determination in HTM for quinolone-resistant Haemophilus influenzae strains; format: cell-based
Description: Inocula were prepared from chocolate agar plates incubated for a full 24 hours by the direct colony suspension method as follows: In a tube of Mueller-Hinton broth (Difco), an organism suspension was made to a density of a 0.5 McFarland standard (1×10^8 CFU/ml). The latter inoculum was diluted in sterile saline such that final organisms suspensions in trays yielded colony counts of 3-8×10^5 CFU/ml. Frozen microdilution trays were obtained from MicroMedia Systems, Inc. (Cleveland, Ohio, USA). Each tray contained all antimicrobials prepared in freshly made HTM. Wells were inoculated with 100 μl suspensions and incubated in ambient air at 35° C. for 20-24 hours. The lowest drug concentration showing no growth was read as the MIC. Standard quality control strains, including H. influenzae ATCC 49766, H. influenzae ATCC 49247, Staphylococcus aureus ATCC 29213 and Escherichia coli ATCC 25922 were included with each run.

[3] = test system: methicillin-susceptible and -resistant Staphylococcus aureus, methicillin-resistant Staphylococcus epidermidis and S. pneumoniae; details: previous studies; cited from earlier work
[4] = test system: quinolone resistant pneumococci; assay: Determination of efflux mechanism: MICs in the presence and absence of reserpine; format: cell-based, Streptococcus pneumoniae; details: for lower MICs in the presence of reserpine, fold range over affected strains: 28 quinolone resistant strains; for lower MICs in the presence of reserpine, fold range over affected strains / number of strains with lower MICs in the presence of reserpine / lower MIC in the presence of reserpine (efflux mechanism): 10 μg/ml reserpine; for number of strains with lower MICs in the presence of reserpine: of 28 quinolone resistant strains
Description: MICs were determined in the presence and absence of 10 μg/ml of reserpine (Sigma Chemicals, St. Louis, Mo.) as known in the art.
MICs were determined in the presence and absence of […] of reserpine (Sigma Chemicals, St. Louis, Mo., USA) as described previously (Brenwald, et al., Antimicrob. Agents Chemother. 42:2039-2035, 1998 and Davies, et al., Antimicrob. Agents Chemother. 43:1177-1182S, 1999).

[5] = 9 quinolone-resistant Haemophilus influenzae strains

SMILES: CO/N=C1\CN(c2nc3c(cc2F)c(=O)c(C(=O)O)cn3C2CC2)CC1CN (racemic) [Gemifloxacin, (R,S)-7-(3-aminomethyl-4-methoxyiminopyrrolidin-1-yl)-1-cyclopropyl-6-fluoro-4-oxo-1,4-dihydro-1,8-naphthyridine-3-carboxylic acid]
- concentration at which bactericidal after 24 h ([1]; 24 h): 2 ×MIC
- concentration at which uniformly bactericidal after 24 h ([1]; all 12 strains, 24 h): ≤ 0.5 µg/mL
- bactericidal activity for the two quinolone resistant pneumococcal strains [1]: bactericidal at the microbroth MIC
- MIC50 [2, 5]: 0.25 µg/mL (≈ 0.642 µM)
- MIC Range [2, 5]: 0.03 to 1.0 µg/mL
- MIC Range ([2]; 9 quinolone-resistant Haemophilus influenzae strains, listed as gemifloxacin): ≤ 1.0 µg/mL
- MIC ([2]; 9 quinolone-resistant Haemophilus influenzae strains, read-out: highest MIC): 1 µg/mL (≈ 2.57 µM)
- MIC ([2]; Haemophilus influenzae, read-out: MICs, strain 1, GyrA S84→L, ParC S133→A N138→S, GyrB None, ParE None): 0.03 µg/mL (≈ 0.077 µM)
- MIC ([2]; Haemophilus influenzae, read-out: MICs, strain 2, GyrA S84→F, ParC None, GyrB None, ParE S458→L): 0.125 µg/mL (≈ 0.321 µM)
- MIC ([2]; Haemophilus influenzae, read-out: MICs, strain 3, GyrA S84→L, ParC S84→I, GyrB None, ParE None): 0.125 µg/mL (≈ 0.321 µM)
- MIC ([2]; Haemophilus influenzae, read-out: MICs, strain 4, GyrA S84→F D88→N, ParC D83→N, GyrB None, ParE T459→S): 0.25 µg/mL (≈ 0.642 µM)
- MIC ([2]; Haemophilus influenzae, read-out: MICs, strain 5, GyrA S84→Y, ParC E88→K, GyrB Q468→R, ParE G405→S): 0.25 µg/mL (≈ 0.642 µM)
- MIC ([2]; Haemophilus influenzae, read-out: MICs, strain 6, GyrA S84→L A117→E, ParC S84→R, GyrB None, ParE D420→N): 0.5 µg/mL (≈ 1.28 µM)
- MIC ([2]; Haemophilus influenzae, read-out: MICs, strain 7, GyrA S84→L A117→E, ParC S84→R, GyrB None, ParE D420→N): 0.5 µg/mL (≈ 1.28 µM)
- MIC ([2]; Haemophilus influenzae, read-out: MICs, strain 8, GyrA S84→L A117→E, ParC S84→R, GyrB None, ParE D420→N): 0.5 µg/mL (≈ 1.28 µM)
- fold more active than ciprofloxacin, ofloxacin, sparfloxacin and trovafloxacin [3]: 32 to 64 fold and 32-64 fold
- lower MICs in the presence of reserpine, fold range over affected strains [4]: 2-4 ×
- number of strains with lower MICs in the presence of reserpine [4]: 13 strains
- Number of dilutions decrease after incubation with reserpine ([4]; strain 1): 2X^a
- lower MIC in the presence of reserpine (efflux mechanism) ([4]; strain 1): 2X^a
- Number of dilutions decrease after incubation with reserpine ([4]; strain 5): 2X
- lower MIC in the presence of reserpine (efflux mechanism) ([4]; strain 5): 2X
- Number of dilutions decrease after incubation with reserpine ([4]; strain 7): 2X
- lower MIC in the presence of reserpine (efflux mechanism) ([4]; strain 7): 2X
- Number of dilutions decrease after incubation with reserpine ([4]; strain 8): 2X
- lower MIC in the presence of reserpine (efflux mechanism) ([4]; strain 8): 2X
- Number of dilutions decrease after incubation with reserpine ([4]; strain 9): 4X
- lower MIC in the presence of reserpine (efflux mechanism) ([4]; strain 9): 4X
- Number of dilutions decrease after incubation with reserpine ([4]; strain 11): 2X
- lower MIC in the presence of reserpine (efflux mechanism) ([4]; strain 11): 2X
- Number of dilutions decrease after incubation with reserpine ([4]; strain 12): 2X
- lower MIC in the presence of reserpine (efflux mechanism) ([4]; strain 12): 2X
- Number of dilutions decrease after incubation with reserpine ([4]; strain 16): 2X
- lower MIC in the presence of reserpine (efflux mechanism) ([4]; strain 16): 2X
- Number of dilutions decrease after incubation with reserpine ([4]; strain 17): 2X
- lower MIC in the presence of reserpine (efflux mechanism) ([4]; strain 17): 2X
- Number of dilutions decrease after incubation with reserpine ([4]; strain 23): 2X
- lower MIC in the presence of reserpine (efflux mechanism) ([4]; strain 23): 2X
- Number of dilutions decrease after incubation with reserpine ([4]; strain 25): 2x X
- lower MIC in the presence of reserpine (efflux mechanism) ([4]; strain 25): 2x X
- Number of dilutions decrease after incubation with reserpine ([4]; strain 26): 2x X
- lower MIC in the presence of reserpine (efflux mechanism) ([4]; strain 26): 2x X
- Number of dilutions decrease after incubation with reserpine ([4]; strain 28): 4x X
- lower MIC in the presence of reserpine (efflux mechanism) ([4]; strain 28): 4x X

SMILES: Cc1c(F)c(N2CCNC(C)C2)cc2c1c(=O)c(C(=O)O)cn2C1CC1 (stereo not drawn) [Grepafloxacin, grepafloxacin]
- concentration at which bactericidal after 24 h ([1]; 24 h): 4 ×MIC
- MIC50 [2, 5]: 1 µg/mL (≈ 2.78 µM)
- MIC Range [2, 5]: 0.25 to 4.0 µg/mL
- lower MICs in the presence of reserpine, fold range over affected strains [4]: 2 ×
- number of strains with lower MICs in the presence of reserpine [4]: 3 strains
- Number of dilutions decrease after incubation with reserpine ([4]; strain 5): 2X
- lower MIC in the presence of reserpine (efflux mechanism) ([4]; strain 5): 2X
- Number of dilutions decrease after incubation with reserpine ([4]; strain 12): 2X
- lower MIC in the presence of reserpine (efflux mechanism) ([4]; strain 12): 2X
- Number of dilutions decrease after incubation with reserpine ([4]; strain 28): 2X
- lower MIC in the presence of reserpine (efflux mechanism) ([4]; strain 28): 2X

SMILES: N[C@@H]1[C@H]2CN(c3nc4c(cc3F)c(=O)c(C(=O)O)cn4-c3ccc(F)cc3F)C[C@@H]12 [Trovafloxacin, trovafloxacin]
- concentration at which bactericidal after 24 h ([1]; 24 h): 4 ×MIC
- bactericidal activity for the two quinolone resistant pneumococcal strains [1]: bactericidal at the microbroth MIC
- MIC50 [2, 5]: 1 µg/mL (≈ 2.4 µM)
- MIC Range [2, 5]: 0.25 to 8.0 µg/mL

SMILES: C[C@@H]1CN(c2c(F)c(N)c3c(=O)c(C(=O)O)cn(C4CC4)c3c2F)C[C@H](C)N1 [Sparfloxacin, sparfloxacin]
- concentration at which bactericidal after 24 h ([1]; 24 h): 2 ×MIC
- MIC50 [2, 5]: 1 µg/mL (≈ 2.55 µM)
- MIC Range [2, 5]: 0.25 to 8.0 µg/mL
- lower MICs in the presence of reserpine, fold range over affected strains [4]: 2 ×
- number of strains with lower MICs in the presence of reserpine [4]: one
- Number of dilutions decrease after incubation with reserpine ([4]; strain 5): 2X
- lower MIC in the presence of reserpine (efflux mechanism) ([4]; strain 5): 2X

Source: US20040044006A1, “Methods of use of quinolone compounds against pneumococcal and haemophilus bacteria” (priority 1999, published 2004)
